Laboratory results: ChEMBL document CHEMBL1139487, “Discovery of corticotropin releasing factor 2 receptor selective sauvagine analogues for treatment of skeletal muscle atrophy” (J Med Chem, 2005)
Square brackets hold non-standard residues; d marks the D form. Peptide text beside a SMILES is read from it. 2Nal = N[C@@H](Cc1ccc2ccccc2c1)C(=O)O; pGlu = O=C1CC[C@@H](C(=O)O)N1

What was measured:
Mus musculus [1] = test: In vivo percentage inhibition against casting induced tibialis anterior mass loss in mouse at a dosage of 10 ug/kg/day; assay type: functional
Mus musculus [2] = test: In vivo percentage inhibition against casting induced tibialis anterior mass loss in mouse at a dosage of 30 ug/kg/day; assay type: functional
Mus musculus [3] = test: In vivo percentage inhibition against casting induced tibialis anterior mass loss in mouse at a dosage of 100 ug/kg/day; assay type: functional
[4] = biological target: T1, Corticotropin-releasing factor receptor 1 (Mus musculus, UniProt P35347); test: In vitro effective concentration for mouse corticotropin releasing factor 1 receptor
T1 sequence (P35347 whole entry): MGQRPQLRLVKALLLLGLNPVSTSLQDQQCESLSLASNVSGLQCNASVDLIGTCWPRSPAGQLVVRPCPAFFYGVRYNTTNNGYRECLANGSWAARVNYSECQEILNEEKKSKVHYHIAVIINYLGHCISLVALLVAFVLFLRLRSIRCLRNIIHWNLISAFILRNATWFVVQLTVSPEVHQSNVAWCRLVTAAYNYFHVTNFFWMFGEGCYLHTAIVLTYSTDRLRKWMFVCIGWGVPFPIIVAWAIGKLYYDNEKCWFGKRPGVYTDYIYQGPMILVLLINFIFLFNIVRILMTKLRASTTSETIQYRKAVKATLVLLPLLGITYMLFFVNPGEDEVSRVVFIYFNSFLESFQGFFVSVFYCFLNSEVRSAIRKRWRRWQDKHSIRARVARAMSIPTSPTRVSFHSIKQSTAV

[5] = biological target: Corticotropin-releasing factor receptor 2 (Mus musculus, UniProt Q60748); test: In vitro effective concentration for mouse corticotropin releasing factor 2 receptor
Corticotropin-releasing factor receptor 2, sequence (Q60748 whole entry): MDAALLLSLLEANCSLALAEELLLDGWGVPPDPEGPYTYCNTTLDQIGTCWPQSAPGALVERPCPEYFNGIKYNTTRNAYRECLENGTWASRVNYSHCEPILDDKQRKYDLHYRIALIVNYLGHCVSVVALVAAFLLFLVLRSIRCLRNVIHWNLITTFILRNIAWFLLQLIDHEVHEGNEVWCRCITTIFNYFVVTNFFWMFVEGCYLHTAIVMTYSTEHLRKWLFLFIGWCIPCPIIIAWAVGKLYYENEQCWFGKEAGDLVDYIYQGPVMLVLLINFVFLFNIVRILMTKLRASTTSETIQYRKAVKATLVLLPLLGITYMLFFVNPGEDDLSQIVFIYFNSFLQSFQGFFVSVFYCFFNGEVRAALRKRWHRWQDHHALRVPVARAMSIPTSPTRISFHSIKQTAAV

[6] = biological target: T2, Corticotropin-releasing factor receptor 1 (Mus musculus) (UniProt P35347); test: In vitro agonistic activity against mouse corticotropin releasing factor 1 receptor; assay type: functional
T2 sequence (whole entry): T1 sequence (P35347 whole entry)

[7] = biological target: Corticotropin-releasing factor receptor 2 (Mus musculus) (UniProt Q60748); test: In vitro agonistic activity against mouse corticotropin releasing factor 2 receptor; assay type: functional
Corticotropin-releasing factor receptor 2 (Mus musculus), sequence (Q60748 whole entry): as above

Mus musculus [8] = species: Mus musculus; test: Selectivity ratio of EC50s for mouse corticotropin releasing factor receptors 1 and 2
Mus musculus [9] = test: In vivo percentage inhibition against casting induced tibialis anterior mass loss in mouse at a dosage of 300 ug/kg/day; assay type: functional; conditions: read-out: Inhibition

Row | EC50 [4] [nM] | EC50 [5] [nM] | Emax [6] [%] | Emax [7] [%] | Selectivity (Mus musculus [8]) | SMILES | inhibition in vivo at 0.01 mg/kg/day (Mus musculus [1]) [%] | inhibition in vivo at 0.03 mg/kg/day (Mus musculus [2]) [%] | inhibition in vivo at 0.1 mg/kg/day (Mus musculus [3]) [%] | inhibition in vivo at 0.3 mg/kg/day (Mus musculus [9]) [%]
1 |  |  | 64 | 100 | 62 | CC[C@H](C)[C@H](NC(=O)[C@@H](NC(=O)[C@H](CC(=O)O)NC(=O)[C@H](CC(C)C)NC(=O)[C@H](CC(C)C)NC(=O)[C@H](CC(C)C)NC(=O)[C@H](CCCN=C(N)N)NC(=O)[C@H](CC(N)=O)NC(=O)[C@H](CC(N)=O)NC(=O)[C@H](C)NC(=O)[C@H](C)NC(=O)[C@H](CCC(N)=O)NC(=O)[C@H](CCC(N)=O)NC(=O)[C@H](CCCCN)NC(=O)[C@H](CCC(=O)O)NC(=O)[C@H](CCCCN)NC(=O)[C@H](CCC(=O)O)NC(=O)[C@H](CCC(N)=O)NC(=O)[C@H](CCCCN)NC(=O)[C@H](CCC(=O)O)NC(=O)[C@@H](NC(=O)[C@H](CCC(=O)O)NC(=O)[C@@H](NC(=O)[C@H](CCSC)NC(=O)[C@H](CCCCN)NC(=O)[C@H](CCCN=C(N)N)NC(=O)[C@H](CC(C)C)NC(=O)[C@H](CC(C)C)NC(=O)[C@H](CCC(N)=O)NC(=O)[C@H](Cc1ccccc1)NC(=O)[C@@H]1CCCN1C(=O)[C@H](CC(C)C)NC(=O)[C@H](CC(=O)O)NC(=O)[C@@H](NC(=O)[C@H](CO)NC(=O)[C@@H](NC(=O)[C@@H]1CCCN1C(=O)[C@@H]1CCCN1C(=O)CNC(=O)[C@@H]1CCC(=O)N1)[C@@H](C)CC)[C@@H](C)CC)[C@@H](C)CC)[C@@H](C)CC)[C@@H](C)O)C(=O)O |  | 58 | 46 | 50
2 | > 1000 | 18.2 | 48 | 82 | > 55 | CC[C@H](C)[C@H](NC(=O)[C@@H](NC(=O)[C@H](CC(=O)O)NC(=O)[C@H](CC(C)C)NC(=O)[C@H](CC(C)C)NC(=O)[C@H](CC(C)C)NC(=O)[C@H](CCCN=C(N)N)NC(=O)[C@H](CC(N)=O)NC(=O)[C@H](CC(N)=O)NC(=O)[C@H](C)NC(=O)[C@H](C)NC(=O)[C@H](CCC(N)=O)NC(=O)[C@H](CCC(N)=O)NC(=O)[C@H](CCCCN)NC(=O)[C@H](CCC(=O)O)NC(=O)[C@H](CCCCN)NC(=O)[C@H](CCC(=O)O)NC(=O)[C@H](CCC(N)=O)NC(=O)[C@H](CCCCN)NC(=O)[C@H](CCC(=O)O)NC(=O)[C@@H](NC(=O)[C@H](CCC(=O)O)NC(=O)[C@@H](NC(=O)[C@H](CCSC)NC(=O)[C@H](CCCCN)NC(=O)[C@H](CCCN=C(N)N)NC(=O)[C@H](CC(C)C)NC(=O)[C@H](CC(C)C)NC(=O)[C@H](Cc1ccc(O)cc1)NC(=O)[C@@H](NC(=O)[C@@H]1CCCN1C(=O)[C@H](CC(C)C)NC(=O)[C@H](CC(=O)O)NC(=O)[C@@H](NC(=O)[C@H](CO)NC(=O)[C@@H](NC(=O)[C@@H]1CCCN1C(=O)[C@@H]1CCCN1C(=O)CNC(=O)[C@@H]1CCC(=O)N1)[C@@H](C)CC)[C@@H](C)CC)[C@@H](C)O)[C@@H](C)CC)[C@@H](C)CC)[C@@H](C)O)C(=O)O |  | 3 | 25 | 59
3 |  |  | 8 | 100 | > 45 | CC[C@H](C)[C@H](NC(=O)[C@@H](NC(=O)[C@H](CC(=O)O)NC(=O)[C@H](CC(C)C)NC(=O)[C@H](CC(C)C)NC(=O)[C@H](CC(C)C)NC(=O)[C@H](CCCN=C(N)N)NC(=O)[C@H](CC(N)=O)NC(=O)[C@H](CC(N)=O)NC(=O)[C@H](C)NC(=O)[C@H](C)NC(=O)[C@H](CCC(N)=O)NC(=O)[C@H](CCC(N)=O)NC(=O)[C@H](CCCCN)NC(=O)[C@H](CCC(=O)O)NC(=O)[C@H](CCCCN)NC(=O)[C@H](CCC(=O)O)NC(=O)[C@H](CCC(N)=O)NC(=O)[C@H](CCCCN)NC(=O)[C@H](CCC(=O)O)NC(=O)[C@@H](NC(=O)[C@H](CCC(=O)O)NC(=O)[C@@H](NC(=O)[C@H](CCSC)NC(=O)[C@H](CCCCN)NC(=O)[C@H](CCCN=C(N)N)NC(=O)[C@H](CC(C)C)NC(=O)[C@H](CC(C)C)NC(=O)[C@H](Cc1ccc(O)cc1)NC(=O)[C@@H](NC(=O)[C@@H]1CCCN1C(=O)[C@H](CC(C)C)NC(=O)[C@H](CC(=O)O)NC(=O)[C@@H](NC(=O)[C@H](CO)NC(=O)[C@@H](NC(=O)[C@@H]1CCCN1C(=O)[C@@H]1CCCN1C(=O)CNC(=O)[C@@H]1CCC(=O)N1)[C@@H](C)CC)[C@@H](C)CC)[C@@H](C)CC)[C@@H](C)CC)[C@@H](C)CC)[C@@H](C)O)C(=O)O |  | 24 | 38 | 58

The next lines start with the compound.

Row | SMILES | EC50 [4] [nM] | EC50 [5] [nM] | Emax [6] [%] | Emax [7] [%] | Selectivity (Mus musculus [8]) | inhibition in vivo at 0.01 mg/kg/day (Mus musculus [1]) [%] | inhibition in vivo at 0.03 mg/kg/day (Mus musculus [2]) [%] | inhibition in vivo at 0.1 mg/kg/day (Mus musculus [3]) [%] | inhibition in vivo at 0.3 mg/kg/day (Mus musculus [9]) [%]
4 | CC[C@H](C)[C@H](NC(=O)[C@@H](NC(=O)[C@H](CC(=O)O)NC(=O)[C@H](CC(C)C)NC(=O)[C@H](CC(C)C)NC(=O)[C@H](CC(C)C)NC(=O)[C@H](CCCN=C(N)N)NC(=O)[C@H](CC(N)=O)NC(=O)[C@H](CC(N)=O)NC(=O)[C@H](C)NC(=O)[C@H](C)NC(=O)[C@H](CCC(N)=O)NC(=O)[C@H](CCC(N)=O)NC(=O)[C@H](CCCCN)NC(=O)[C@H](CCC(=O)O)NC(=O)[C@H](CCCCN)NC(=O)[C@H](CCC(=O)O)NC(=O)[C@H](CCC(N)=O)NC(=O)[C@H](CCCCN)NC(=O)[C@H](CCC(=O)O)NC(=O)[C@@H](NC(=O)[C@H](CCC(=O)O)NC(=O)[C@@H](NC(=O)[C@H](CCSC)NC(=O)[C@H](CCCCN)NC(=O)[C@H](CCCN=C(N)N)NC(=O)[C@H](CC(C)C)NC(=O)[C@H](Cc1ccc2ccccc2c1)NC(=O)[C@H](Cc1c[nH]c2ccccc12)NC(=O)[C@H](CC(C)C)NC(=O)[C@@H]1CCCN1C(=O)[C@H](CC(C)C)NC(=O)[C@H](CC(=O)O)NC(=O)[C@@H](NC(=O)[C@H](CO)NC(=O)[C@@H](NC(=O)[C@@H]1CCCN1C(=O)[C@@H]1CCCN1C(=O)CNC(=O)[C@@H]1CCC(=O)N1)[C@@H](C)CC)[C@@H](C)CC)[C@@H](C)CC)[C@@H](C)CC)[C@@H](C)O)C(=O)O ([pGlu]GPPISIDLPLW[2Nal]LRKMIEIEKQEKEKQQAANNRLLLDTI-OH) | 63.4 | 3.3 | 100 | 73 | 19 | 53 | 45 | 79 | 
5 | CC[C@H](C)[C@H](NC(=O)[C@@H](NC(=O)[C@H](CC(=O)O)NC(=O)[C@H](CC(C)C)NC(=O)[C@H](CC(C)C)NC(=O)[C@H](CC(C)C)NC(=O)[C@H](CCCN=C(N)N)NC(=O)[C@H](CC(N)=O)NC(=O)[C@H](CC(N)=O)NC(=O)[C@H](C)NC(=O)[C@H](C)NC(=O)[C@H](CCC(N)=O)NC(=O)[C@H](CCC(N)=O)NC(=O)[C@H](CCCCN)NC(=O)[C@H](CCC(=O)O)NC(=O)[C@H](CCCCN)NC(=O)[C@H](CCC(=O)O)NC(=O)[C@H](CCC(N)=O)NC(=O)[C@H](CCCCN)NC(=O)[C@H](CCC(=O)O)NC(=O)[C@@H](NC(=O)[C@H](CCC(=O)O)NC(=O)[C@@H](NC(=O)[C@H](CCSC)NC(=O)[C@H](CCCCN)NC(=O)[C@H](CCCN=C(N)N)NC(=O)[C@H](CC(C)C)NC(=O)[C@H](CC(C)C)NC(=O)[C@H](CC(C)C)NC(=O)[C@@H](NC(=O)[C@@H]1CCCN1C(=O)[C@H](CC(C)C)NC(=O)[C@H](CC(=O)O)NC(=O)[C@@H](NC(=O)[C@H](CO)NC(=O)[C@@H](NC(=O)[C@@H]1CCCN1C(=O)[C@@H]1CCCN1C(=O)CNC(=O)[C@@H]1CCC(=O)N1)[C@@H](C)CC)[C@@H](C)CC)[C@@H](C)CC)[C@@H](C)CC)[C@@H](C)CC)[C@@H](C)O)C(=O)O | > 1000 | 15.6 | 72 | 88 | > 64 | 10 | 66 | 91 | 
6 | CC[C@H](C)[C@H](NC(=O)[C@@H](NC(=O)[C@H](CC(=O)O)NC(=O)[C@H](CC(C)C)NC(=O)[C@H](CC(C)C)NC(=O)[C@H](CC(C)C)NC(=O)[C@H](CCCN=C(N)N)NC(=O)[C@H](CC(N)=O)NC(=O)[C@H](CC(N)=O)NC(=O)[C@H](C)NC(=O)[C@H](C)NC(=O)[C@H](CCC(N)=O)NC(=O)[C@H](CCC(N)=O)NC(=O)[C@H](CCCCN)NC(=O)[C@H](CCC(=O)O)NC(=O)[C@H](CCCCN)NC(=O)[C@H](CCC(=O)O)NC(=O)[C@H](CCC(N)=O)NC(=O)[C@H](CCCCN)NC(=O)[C@H](CCC(=O)O)NC(=O)[C@@H](NC(=O)[C@H](CCC(=O)O)NC(=O)[C@@H](NC(=O)[C@H](CCSC)NC(=O)[C@H](CCCCN)NC(=O)[C@H](CCCN=C(N)N)NC(=O)[C@H](CC(C)C)NC(=O)[C@H](CC(C)C)NC(=O)[C@H](Cc1c[nH]c2ccccc12)NC(=O)[C@@H](NC(=O)[C@@H]1CCCN1C(=O)[C@H](CC(C)C)NC(=O)[C@H](CC(=O)O)NC(=O)[C@@H](NC(=O)[C@H](CO)NC(=O)[C@@H](NC(=O)[C@@H]1CCCN1C(=O)[C@@H]1CCCN1C(=O)CNC(=O)[C@@H]1CCC(=O)N1)[C@@H](C)CC)[C@@H](C)CC)[C@@H](C)O)[C@@H](C)CC)[C@@H](C)CC)[C@@H](C)O)C(=O)O | > 1000 | 15.2 | 43 | 100 | > 66 | 30 | 84 | 91 | 
